Measurements: patent publication US20230381157A1, “RIFABUTIN FOR THE TREATMENT OF ACINETOBACTER BAUMANNII” (University of Southern California, priority 2018, published 2023)
Converted amounts (≈) assume the structure as drawn. “And” between values parts separate entries of the source, which are not always exact repeats. Equal values may be shown once. Read-outs that look alike come from different tables or passages of the source. One block for each compound: values may come before it.

Tests used:
[1] = test system: A. baumannii HUMC1; experiment: MIC, broth microdilution in MHII, RPMI or modified media; type: cell-based, Acinetobacter baumannii
[2] = test system: A. baumannii ATCC 17978; experiment: IC50 dose response, inhibition of bacterial growth (BacTiter-Glo viability); type: cell-based, Acinetobacter baumannii; conditions: 11-point dose response, read-out: IC50
[3] = test system: A. baumannii HUMC1; experiment: as above; type: cell-based, Acinetobacter baumannii; conditions: 11-point dose response, read-out: IC50
[4] = test system: HEK293T; experiment: Specificity: mammalian cell cytotoxicity / inhibition of bacteria growth (CC50/IC50)
[5] = test system: A. baumannii; experiment: MIC, broth microdilution, A. baumannii clinical isolates / strain panel; type: cell-based, Acinetobacter baumannii; conditions: Acinetobacter baumannii; for MIC: read-out: MIC; for MIC50 / MIC90: A. baumannii strain panel; for MIC50: read-out: MIC50; for MIC90: read-out: MIC90
[6] = test system: S. aureus LAC; experiment: microbe, parasite or virus in culture; type: cell-based; conditions: Staphylococcus aureus, read-out: MIC
[7] = test system: K. pneumonia; experiment: MIC, broth microdilution; type: cell-based; conditions: Klebsiella pneumoniae, read-out: MIC
[8] = test system: E. coli; experiment: MIC, broth microdilution; type: cell-based; conditions: Escherichia coli, E. coli JJ1886
[9] = test system: A. baumannii; type: cell-based, Acinetobacter baumannii
[10] = test system: S. aureus LAC; type: cell-based, Staphylococcus aureus; conditions: TSA
[11] = test system: E. coli JJ1886; type: cell-based, Escherichia coli; conditions: TSA
[12] = test system: A. baumannii HUMC1; type: in vivo, mouse
[13] = test system: A. baumannii HUMC1; type: in vivo, mouse; remark: listed apart in the source
[14] = test system: Acinetobacter baumannii; experiment: Galleria mellonella infection model; type: in vivo; conditions: Galleria mellonella; doses as high as 5 mg/kg
[15] = IC50 vs A. baumannii ATCC 17978, RPMI + 50% serum
[16] = IC50 vs A. baumannii ATCC 17978, RPMI alone
[17] = IC50 vs A. baumannii HUMC1, RPMI + 50% serum
[18] = IC50 vs A. baumannii HUMC1, RPMI alone

MIC ([1]; Acinetobacter baumannii, HUMC1, HUMC1, inhibitor alone, read-out: MIC of efflux pump inhibitor alone): 64 µg/mL
SMILES: CSc1ccc2c(c1)N(CCC1CCCCN1C)c1ccccc1S2 (stereo not drawn) [thioridazine]

SMILES: CO[C@H]1/C=C/O[C@@]2(C)Oc3c(C)c(O)c4c(O)c(c(/C=N/N=C/N5CCCCC5)c(O)c4c3C2=O)NC(=O)/C(C)=C\C=C\[C@H](C)[C@H](O)[C@@H](C)[C@@H](O)[C@@H](C)[C@H](OC(C)=O)[C@@H]1C [FCE-22250]
IC50 ([2]; ATCC 17978, RPMI + 50% Serum): 35.3 µM
IC50 ([2]; ATCC 17978, RPMI): 9.74 µM
IC50 ([3]; HUMC1, RPMI + 50% Serum): 21.7 µM
IC50 ([3]; HUMC1, RPMI): 9.03 µM
Specificity HEK293T (CC50/IC50) [4, 15]: 0.950
Specificity HEK293T (CC50/IC50) [4, 16]: 3.441
Specificity HEK293T (CC50/IC50) [4, 17]: 1.545
Specificity HEK293T (CC50/IC50) [4, 18]: 3.710

SMILES: N#CC(C#N)=NNc1cccc(Cl)c1 [CCCP]
MIC of efflux pump inhibitor alone ([1]; HUMC1, inhibitor alone): 8 µg/mL

SMILES: CO[C@H]1/C=C/O[C@@]2(C)Oc3c(C)c(O)c4c(O)c(c(/C=N/N5CCN(C)CC5)c(O)c4c3C2=O)NC(=O)/C(C)=C\C=C\[C@H](C)[C@H](O)[C@@H](C)[C@@H](O)[C@@H](C)[C@H](OC(C)=O)[C@@H]1C [rifampin]
IC50 ([2]; Acinetobacter baumannii, ATCC17978, 24 h, ATCC 17978, RPMI + 50% Serum): 18.2 µM
IC50 ([2]; Acinetobacter baumannii, ATCC17978, ATCC 17978, RPMI + 50% Serum): 18.2 µM
IC50 ([2]; Acinetobacter baumannii, ATCC17978, ATCC 17978, RPMI): 13.8 µM
IC50 ([3]; Acinetobacter baumannii, HUMC1, 24 h, HUMC1, RPMI + 50% Serum): 7.99 µM
IC50 ([3]; Acinetobacter baumannii, HUMC1, HUMC1, RPMI + 50% Serum): 7.99 µM
IC50 ([3]; Acinetobacter baumannii, HUMC1, HUMC1, RPMI): 11 µM
MIC ([1]; Acinetobacter baumannii, HUMC1, HUMC1, 0.01% Triton X-100, read-out: MIC): 2 µg/mL (≈ 2.43 µM)
MIC ([1]; Acinetobacter baumannii, HUMC1, HUMC1, 0.05% Tween 20, MHII, read-out: MIC): 2 µg/mL (≈ 2.43 µM)
MIC ([1]; Acinetobacter baumannii, HUMC1, HUMC1, 25° C., MHII, read-out: MIC): 2 µg/mL (≈ 2.43 µM)
MIC ([1]; Acinetobacter baumannii, HUMC1, HUMC1, 25° C., RPMI, read-out: MIC): 2 µg/mL (≈ 2.43 µM)
MIC ([1]; Acinetobacter baumannii, HUMC1, HUMC1, MHII (CAMHB), read-out: MIC): 4 µg/mL (≈ 4.86 µM)
MIC ([1]; Acinetobacter baumannii, HUMC1, HUMC1, RPMI + Essential Amino Acid Solution (50×), read-out: MIC): 6.25 µg/mL
MIC ([1]; Acinetobacter baumannii, HUMC1, HUMC1, RPMI + L-Histidine 0.5 mM): 12.5 µg/mL
MIC ([1]; Acinetobacter baumannii, HUMC1, HUMC1, RPMI + L-Tryptophan 0.125 mM): 12.5 µg/mL
difference in MICs at lower temperature ([1]; HUMC1, 25° C. or 30° C. compared to 37° C., MHII or RPMI): did not observe any difference
MIC ([1]; HUMC1, MHII (CAMHB in b45)): 3.125 µg/mL (≈ 3.8 µM)
MIC ([1]; HUMC1, MHII (CAMHB in b45), listed as Rifampin): 3.125 µg/mL (≈ 3.8 µM)
MIC ([1]; HUMC1, MHII (CAMHB), listed as RIF): 2 µg/mL and 3.125 µg/mL
MIC ([1]; HUMC1, RPMI): 3.125 µg/mL (≈ 3.8 µM)
MIC ([1]; HUMC1, RPMI, listed as Rifampin): 3.125 µg/mL (≈ 3.8 µM)
MIC ([5]; A. baumannii (strain not named), MHII): 4 µg/mL (≈ 4.86 µM)
MIC ([5]; A. baumannii (strain not named), RPMI with serum): 4 µg/mL (≈ 4.86 µM)
MIC ([5]; A. baumannii VA-AB21, MHII): 3.12 µg/mL (≈ 3.8 µM)
MIC ([5]; A. baumannii VA-AB21, RPMI): > 6.12 µg/mL
MIC50 ([5]; CAMHB): 3.13 µg/mL (≈ 3.8 µM)
MIC90 ([5]; CAMHB): 6.25 µg/mL (≈ 7.59 µM)
MIC50 ([5]; RPMI): 12.5 µg/mL (≈ 15.2 µM)
MIC90 ([5]; RPMI): 25 µg/mL (≈ 30.4 µM)
MIC ([5]; ATCC17978, A. baumannii ATCC17978 and HUMC1, MHII): 2 µg/mL (≈ 2.43 µM)
MIC ([5]; ATCC17978, A. baumannii ATCC17978 and HUMC1, RPMI): 8 µg/mL (≈ 9.72 µM)
MIC ([6]; MHII): 0.025 µg/mL (≈ 0.0304 µM)
MIC ([6]; RPMI): 0.05 µg/mL (≈ 0.0608 µM)
MIC ([7]; K. pneumonia KP-3, MHII): 3.12 µg/mL (≈ 3.8 µM)
MIC ([7]; K. pneumonia KP-3, RPMI): 1.56 µg/mL (≈ 1.9 µM)
MIC ([7]; K. pneumonia KPC-KP1, MHII): 25 µg/mL (≈ 30.4 µM)
MIC ([7]; K. pneumonia KPC-KP1, RPMI): 50 µg/mL (≈ 60.8 µM)
MIC ([8]; MHII): 6.25 µg/mL (≈ 7.59 µM)
MIC ([8]; RPMI): 25 µg/mL (≈ 30.4 µM)
Mutation Frequency ([9]; A. baumannii ABNIH1, MHII): 4.17E−08
Mutation Frequency ([9]; A. baumannii ATCC17978, MHII): 5.14E−09
Mutation Frequency ([9]; A. baumannii ATCC17978, TSA): 7.95E−09
Mutation Frequency ([9]; A. baumannii HUMC1, MHII): 9.19E−09
Mutation Frequency ([9]; A. baumannii HUMC1, TSA): 1.44E−08
Mutation Frequency ([9]; A. baumannii LAC-4, MHII): 2.62E−08
Mutation Frequency [10]: 9.49E−08
Mutation Frequency [11]: 2.21E−08
survival ([12]; 5 mg/kg for 3 days, 2 days post infection): < 20%
survival ([12]; 5 mg/kg/daily for 3 days, oral gavage): did not protect from mortality
survival ([12]; 5 mg/kg/daily for 3 days, oral gavage, listed as RFP): did not improve survival vs. control
survival ([12]; 5 mg/kg/daily for 3 days, oral gavage, listed as RIF): did not do any better as compared to the PBS control group
lung CFUs ([12]; 5 mg/kg/daily for 3 days, oral gavage, lungs at 24 hrs post infection): did not reduce CFUs compared to control
bacterial burden ([12]; murine pneumonia, 5 mg/kg, day 7 post-infection): ~6.5 Log10(CFU/mg lung)
protection at minimum dose test ([13]; IV infection, RIF 10 or 30 mg/kg/daily for 3 days): only partially protective
survival ([13]; bacteremia model, 10 mg/kg for 3 days, 2 days post infection, PBS/control 0%): about 50%
protection ([13]; murine bacteremia, 10 mg/kg): 50%
protection [14]: only a partial protection
Specificity HEK293T (CC50/IC50) [4, 15]: 2.741
Specificity HEK293T (CC50/IC50) [4, 16]: 3.621
Specificity HEK293T (CC50/IC50) [4, 17]: 6.256
Specificity HEK293T (CC50/IC50) [4, 18]: 4.538

IC50 ([2]; ATCC 17978, RPMI + 50% Serum): 50 µM
IC50 ([2]; ATCC 17978, RPMI): 45.1 µM
IC50 ([3]; HUMC1, RPMI + 50% Serum): 50 µM
IC50 ([3]; HUMC1, RPMI): 37.1 µM
SMILES: CO[C@H]1/C=C/O[C@@]2(C)Oc3c(C)c([O-])c4c(O)c(cc(O)c4c3C2=O)NC(=O)/C(C)=C\C=C\[C@H](C)[C@H](O)[C@@H](C)[C@@H](O)[C@@H](C)[C@H](OC(C)=O)[C@@H]1C.[Na+] [rifamycin SV]
Specificity HEK293T (CC50/IC50) [4, 15]: 1.000
Specificity HEK293T (CC50/IC50) [4, 16]: 1.108
Specificity HEK293T (CC50/IC50) [4, 17]: 1.000
Specificity HEK293T (CC50/IC50) [4, 18]: 1.348
